Results from patent US8633313B2, “Heterocyclic compounds and their uses” (Amgen Inc., priority 2009, dated 2014).

Assays:
PI3K delta = target: T1, PI3K delta (Homo sapiens, UniProt O00329); test: In vitro enzyme assay, PI3K delta biochemical potency; conditions: comparison of the two separated enantiomers
T1 construct: Full length p110 subunits of PI3k α, β and δ, N-terminally labeled with polyHis tag; polyHis (N); made in house; host or cells: Sf9 insect cells (baculovirus)
Description: Full length p110 subunits of PI3k α, β and δ, N-terminally labeled with polyHis tag, were coexpressed with p85 with Baculo virus expression vectors in sf9 insect cells. P110/p85 heterodimers were purified by sequential Ni-NTA, Q-HP, Superdex-100 chromatography. Purified α, β and δ isozymes were stored at −20° C. in 20 mM Tris, pH 8, 0.2M NaCl, 50% glycerol, 5 mM DTT, 2 mM Na cholate. Truncated PI3Kγ, residues 114-1102, N-terminally labeled with polyHis tag, was expressed with Baculo virus in Hi5 insect cells. The γ isozyme was purified by sequential Ni-NTA, Superdex-200, Q-HP chromatography. The γ isozyme was stored frozen at −80° C. in NaH2PO4, pH 8, 0.2M NaCl, 1% ethylene glycol, 2 mM β-mercaptoethanol.
Assays were performed in 25 μL with the above final concentrations of components in white polyproplyene plates (Costar 3355). Phospatidyl inositol phosphoacceptor, PtdIns(4,5)P2 P4508, was from Echelon Biosciences. The ATPase activity of the alpha and gamma isozymes was not greatly stimulated by PtdIns(4,5)P2 under these conditions and was therefore omitted from the assay of these isozymes. Test compounds were dissolved in dimethyl sulfoxide and diluted with three-fold serial dilutions. The compound in DMSO (1 μL) was added per test well, and the inhibition relative to reactions containing no compound, with and without enzyme was determined. After assay incubation at rt, the reaction was stopped and residual ATP determined by addition of an equal volume of a commercial ATP bioluminescence kit (Perkin Elmer EasyLite) according to the manufacturer's instructions, and detected using a AnalystGT luminometer.

p110δ = target: T2, p110δ (Homo sapiens, UniProt O00329); conditions: cited from earlier work
T2 sequence (O00329 1-1044): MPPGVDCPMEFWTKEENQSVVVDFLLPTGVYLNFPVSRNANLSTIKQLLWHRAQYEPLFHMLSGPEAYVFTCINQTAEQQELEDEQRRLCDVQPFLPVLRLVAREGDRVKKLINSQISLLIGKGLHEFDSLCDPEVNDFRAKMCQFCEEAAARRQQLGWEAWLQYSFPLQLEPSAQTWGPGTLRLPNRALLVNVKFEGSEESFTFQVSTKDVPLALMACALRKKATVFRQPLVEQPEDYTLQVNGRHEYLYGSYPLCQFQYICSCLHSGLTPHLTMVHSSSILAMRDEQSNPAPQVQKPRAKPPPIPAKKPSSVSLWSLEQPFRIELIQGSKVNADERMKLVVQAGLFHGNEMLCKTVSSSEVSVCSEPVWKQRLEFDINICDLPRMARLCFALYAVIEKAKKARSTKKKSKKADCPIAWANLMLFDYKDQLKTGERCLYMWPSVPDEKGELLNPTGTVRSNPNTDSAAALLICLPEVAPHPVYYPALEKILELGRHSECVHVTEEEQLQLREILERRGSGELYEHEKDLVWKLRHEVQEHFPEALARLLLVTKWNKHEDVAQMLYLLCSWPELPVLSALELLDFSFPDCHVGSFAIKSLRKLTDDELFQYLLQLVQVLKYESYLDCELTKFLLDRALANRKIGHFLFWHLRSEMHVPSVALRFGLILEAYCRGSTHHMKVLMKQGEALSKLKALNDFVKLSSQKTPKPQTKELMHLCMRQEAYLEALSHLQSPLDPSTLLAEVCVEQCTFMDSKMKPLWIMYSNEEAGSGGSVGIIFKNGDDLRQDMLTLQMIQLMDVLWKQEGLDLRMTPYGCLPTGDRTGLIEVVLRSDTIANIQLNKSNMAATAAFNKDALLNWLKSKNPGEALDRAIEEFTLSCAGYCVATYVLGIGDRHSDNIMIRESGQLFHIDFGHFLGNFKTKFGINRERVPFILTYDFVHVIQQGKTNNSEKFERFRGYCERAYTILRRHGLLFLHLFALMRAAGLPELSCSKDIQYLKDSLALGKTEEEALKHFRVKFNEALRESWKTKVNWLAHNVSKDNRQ

protein kinases = conditions: cited from earlier work
[1] = system: ovalbumin-induced airway inflammation; conditions: cited from earlier work
[2] = system: rheumatoid arthritis model; conditions: in vivo; cited from earlier work
[3] = system: systemic lupus erythematosis model; conditions: in vivo; cited from earlier work

T1 sequence (P27986 whole entry partner, one chain of several): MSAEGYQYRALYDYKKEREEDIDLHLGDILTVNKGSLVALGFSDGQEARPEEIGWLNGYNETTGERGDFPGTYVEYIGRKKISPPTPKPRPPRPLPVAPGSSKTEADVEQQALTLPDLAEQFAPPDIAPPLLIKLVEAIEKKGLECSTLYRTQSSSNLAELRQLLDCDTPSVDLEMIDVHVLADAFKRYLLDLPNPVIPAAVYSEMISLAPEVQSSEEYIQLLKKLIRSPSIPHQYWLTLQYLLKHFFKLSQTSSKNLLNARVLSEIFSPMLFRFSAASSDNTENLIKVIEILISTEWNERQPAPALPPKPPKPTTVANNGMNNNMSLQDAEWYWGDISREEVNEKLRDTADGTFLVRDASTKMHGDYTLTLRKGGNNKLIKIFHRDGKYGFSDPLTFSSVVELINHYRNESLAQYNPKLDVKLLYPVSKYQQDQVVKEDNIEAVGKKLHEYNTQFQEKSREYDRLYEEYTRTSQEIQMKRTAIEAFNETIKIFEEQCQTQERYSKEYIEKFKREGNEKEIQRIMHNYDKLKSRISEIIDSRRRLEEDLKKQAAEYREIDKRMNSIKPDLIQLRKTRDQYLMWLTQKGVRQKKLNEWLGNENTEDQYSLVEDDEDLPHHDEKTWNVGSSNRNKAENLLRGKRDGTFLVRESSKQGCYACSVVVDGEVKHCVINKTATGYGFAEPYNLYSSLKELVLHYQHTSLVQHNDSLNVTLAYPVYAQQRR

Row | SMILES | PI3K delta biochemical potency, one isomer relative to the other (PI3K delta) | further results
1 | C[C@H](Nc1ncnc(N)c1C#N)c1cc2ncccc2nc1-c1cc(F)cc(F)c1 (single isomer, unassigned; isomer 4) [Example 3 S-isomer] | more potent | –
2 | C[C@H](Nc1ncnc(N)c1C#N)c1nc2cccnc2cc1-c1ccccc1 (single isomer, unassigned; isomer 4) [Example 4 S-isomer] | more potent | –
3 | C[C@@H](Nc1ncnc(N)c1C#N)c1cc2ncccc2nc1-c1ccccc1F (single isomer, unassigned; isomer 4) [Example 2 R-isomer] | less potent | –
4 | C[C@@H](Nc1ncnc(N)c1C#N)c1nc2cccnc2cc1-c1ccccc1 (single isomer, unassigned; isomer 4) [Example 4 R-isomer] | less potent | –
5 | Cc1ccccc1-n1c(Cn2cnc3c(N)ncnc32)nc2cccc(C)c2c1=O [IC87114] | – | inhibition of p110δ (p110δ): high nanomolar range (triple digit); activity against any protein kinases tested (protein kinases): no activity; inflammation and disease in a murine model of asthma [1]: significantly ameliorate inflammation and disease
6 | C[C@H](Nc1ncnc(N)c1C#N)c1cc2ncccc2nc1-c1ccccc1F (single isomer, unassigned; isomer 4) [Example 2 S-isomer] | more potent | –
7 | C[C@@H](Nc1ncnc(N)c1C#N)c1cc2ncccc2nc1-c1cc(F)cc(F)c1 (single isomer, unassigned; isomer 4) [Example 3 R-isomer] | less potent | –
8 | O=C1NC(=O)/C(=C\c2ccc3nccnc3c2)S1 [AS 605240] | – | efficacy in a mouse model of rheumatoid arthritis [2]: efficacious; onset of disease in a model of systemic lupus erythematosis [3]: delay onset of disease
